From US20130143902A1, “COMPOSITIONS AND METHODS OF TREATING A PROLIFERATIVE DISEASE WITH A QUINAZOLINONE DERIVATIVE” (GILEAD CALISTOGA LLC, priority 2011, published 2013)
Several values for one entry are separate records, joined by “and”; a condition that tells them apart may be missing. Equal entries are not always repeated. Where two headings read alike, the source gives them in different places.

Experiments:
IGROV-1 = assay: Viability (AlamarBlue), IGROV-1; format: cell-based; conditions: Homo sapiens; IGROV-1, Ovarian
Method: (§1) For primary T-ALL samples, cell viability was determined using the BD Cell Viability kit (BD Biosciences) and fluorescent counting beads as previously described in Armstrong, F. et al., NOTCH is a key regulator of human T-cell acute leukemia initiating cell activity, Blood 113, 1730-1740 (2009). Cells were plated with MS5-DL1 stroma cells. After 72 hours following treatment, cells were harvested and stained with an APC-conjugated anti-human CD45 according to the manufacturer's instructions. For solid tumor cell lines, cellular viability was determined using the AlamarBlue kit (Invitrogen). About 10,000 cells in 100 μL of media containing 10% FBS were aliquoted into individual wells of a 96-well plate and treated with vehicle (DMSO) or compound in triplicate for 24 hours. Ten μL of AlamarBlue reagent was added to each well and incubated for 4 hours at 37° C. with 5% CO2. Fluorescence was measured with an excitation wavelength at 530 to 560 nm and emission wavelength at 590 nm using Spectramax M5 plate reader (Molecular Devices, Sunnyvale, Calif.).

PI3K p110α = PI3K p110α (Mus musculus, UniProt P42337); assay: Cellular p110α signaling: PDGF-stimulated MEFs, pAkt Western blot; format: cell-based, murine
Chain of PI3K p110α (P42337 whole entry): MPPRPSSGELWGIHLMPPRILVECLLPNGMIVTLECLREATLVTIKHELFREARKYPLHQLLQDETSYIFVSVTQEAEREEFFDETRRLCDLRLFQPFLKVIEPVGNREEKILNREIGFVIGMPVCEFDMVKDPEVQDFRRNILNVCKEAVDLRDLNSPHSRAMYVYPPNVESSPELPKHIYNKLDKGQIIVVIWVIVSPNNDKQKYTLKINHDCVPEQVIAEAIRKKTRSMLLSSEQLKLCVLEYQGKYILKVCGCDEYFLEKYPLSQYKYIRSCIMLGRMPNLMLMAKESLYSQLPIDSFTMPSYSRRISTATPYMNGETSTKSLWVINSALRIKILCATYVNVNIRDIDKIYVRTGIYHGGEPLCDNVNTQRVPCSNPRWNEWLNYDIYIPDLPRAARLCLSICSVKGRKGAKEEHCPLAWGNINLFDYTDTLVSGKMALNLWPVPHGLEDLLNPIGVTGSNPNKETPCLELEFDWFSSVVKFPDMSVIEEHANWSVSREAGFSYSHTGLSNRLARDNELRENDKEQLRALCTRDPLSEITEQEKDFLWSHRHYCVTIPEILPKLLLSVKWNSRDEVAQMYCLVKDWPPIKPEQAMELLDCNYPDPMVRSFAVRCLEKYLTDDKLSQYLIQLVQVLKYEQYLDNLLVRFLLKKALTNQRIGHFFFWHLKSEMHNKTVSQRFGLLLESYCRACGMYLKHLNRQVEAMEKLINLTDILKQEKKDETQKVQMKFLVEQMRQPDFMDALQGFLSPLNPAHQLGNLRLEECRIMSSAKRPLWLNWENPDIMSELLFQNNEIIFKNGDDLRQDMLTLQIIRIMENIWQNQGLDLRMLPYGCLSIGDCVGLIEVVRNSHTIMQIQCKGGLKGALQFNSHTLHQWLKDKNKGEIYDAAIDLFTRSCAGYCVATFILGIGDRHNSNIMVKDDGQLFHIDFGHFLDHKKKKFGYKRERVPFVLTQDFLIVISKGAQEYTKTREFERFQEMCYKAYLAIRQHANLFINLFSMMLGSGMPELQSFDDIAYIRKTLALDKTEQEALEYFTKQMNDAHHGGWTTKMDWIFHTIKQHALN
Chain of PI3K p110α (P26450 whole entry partner): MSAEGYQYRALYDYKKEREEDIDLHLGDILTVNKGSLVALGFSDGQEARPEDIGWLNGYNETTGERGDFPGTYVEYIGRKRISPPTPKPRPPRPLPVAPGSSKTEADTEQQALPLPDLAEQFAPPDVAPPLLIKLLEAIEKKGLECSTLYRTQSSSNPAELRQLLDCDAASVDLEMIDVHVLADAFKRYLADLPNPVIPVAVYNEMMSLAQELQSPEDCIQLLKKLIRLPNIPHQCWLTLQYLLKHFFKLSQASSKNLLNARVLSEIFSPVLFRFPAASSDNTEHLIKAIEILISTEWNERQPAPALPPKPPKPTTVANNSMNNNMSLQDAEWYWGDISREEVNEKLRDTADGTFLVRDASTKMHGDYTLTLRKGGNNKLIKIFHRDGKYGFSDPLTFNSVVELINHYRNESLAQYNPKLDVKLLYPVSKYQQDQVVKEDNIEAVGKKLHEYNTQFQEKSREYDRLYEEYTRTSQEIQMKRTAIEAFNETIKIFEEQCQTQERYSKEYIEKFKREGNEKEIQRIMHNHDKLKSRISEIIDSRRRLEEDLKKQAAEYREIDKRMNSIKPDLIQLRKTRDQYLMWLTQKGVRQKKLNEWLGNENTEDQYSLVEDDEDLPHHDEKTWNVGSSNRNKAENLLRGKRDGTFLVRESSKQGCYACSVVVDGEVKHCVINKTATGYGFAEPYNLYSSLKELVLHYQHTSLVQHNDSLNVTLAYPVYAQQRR
Method: (§3) To analyze PI3K p110α and p110β signaling, murine embryo fibroblast (MEFs) were removed from FBS and starved for 2 hours followed by stimulation with 10 ng/mL of PDGF (Cell Signaling Technologies, Danvers, Mass.) or 10 μM of LPA (Echelon, Salt Lake City, Utah) for 10 minutes at 37° C., respectively. After washing once in cold phosphate-buffered saline (PBS), the cell pellet was resuspended in 1× cell lysis buffer (Cell Signaling Technologies) supplemented with mini protease inhibitor mix (Roche, Indianapolis, Ind.), phosphate inhibitor cocktail set I and II (Calbiochem, San Diego, Calif.) for 15 minutes on ice. Whole-cell lysates were obtained by centrifugation at 16,000 g for 10 minutes at 4° C., and the soluble protein was analyzed by Western blotting for Akt and pAkt levels. To analyze PI3K p110δ and p110γ signaling, basophil activation was measured in isolated PBMC or whole blood using the Flow2 CAST kit according to the manufacture's standardized methods (Buhlman Laboratories AG, Switzerland). Briefly, p110δ was activated with anti-FCεRI and p110γ was activated with fMLP (2 μM) in the absence or presence of compounds. To monitor the basophil cell population and cellular activation, anti-CD63-FITC and anti-CCR3-PE antibodies were added to each sample. Cells were fixed and analyzed on a FC500 MPL flow cytometer (Beckman Coulter, Brea, Calif.).

PI3K p110β = biological target: T1, PI3K p110β (Mus musculus, UniProt Q8BTI9); assay: Cellular p110β signaling: LPA-stimulated MEFs, pAkt Western blot; format: cell-based, murine; conditions: EC50 p110β, cellular assay
T1 construct: endogenous in cells; host or cells: murine embryo fibroblasts (MEFs)
T1 sequence (Q8BTI9 whole entry): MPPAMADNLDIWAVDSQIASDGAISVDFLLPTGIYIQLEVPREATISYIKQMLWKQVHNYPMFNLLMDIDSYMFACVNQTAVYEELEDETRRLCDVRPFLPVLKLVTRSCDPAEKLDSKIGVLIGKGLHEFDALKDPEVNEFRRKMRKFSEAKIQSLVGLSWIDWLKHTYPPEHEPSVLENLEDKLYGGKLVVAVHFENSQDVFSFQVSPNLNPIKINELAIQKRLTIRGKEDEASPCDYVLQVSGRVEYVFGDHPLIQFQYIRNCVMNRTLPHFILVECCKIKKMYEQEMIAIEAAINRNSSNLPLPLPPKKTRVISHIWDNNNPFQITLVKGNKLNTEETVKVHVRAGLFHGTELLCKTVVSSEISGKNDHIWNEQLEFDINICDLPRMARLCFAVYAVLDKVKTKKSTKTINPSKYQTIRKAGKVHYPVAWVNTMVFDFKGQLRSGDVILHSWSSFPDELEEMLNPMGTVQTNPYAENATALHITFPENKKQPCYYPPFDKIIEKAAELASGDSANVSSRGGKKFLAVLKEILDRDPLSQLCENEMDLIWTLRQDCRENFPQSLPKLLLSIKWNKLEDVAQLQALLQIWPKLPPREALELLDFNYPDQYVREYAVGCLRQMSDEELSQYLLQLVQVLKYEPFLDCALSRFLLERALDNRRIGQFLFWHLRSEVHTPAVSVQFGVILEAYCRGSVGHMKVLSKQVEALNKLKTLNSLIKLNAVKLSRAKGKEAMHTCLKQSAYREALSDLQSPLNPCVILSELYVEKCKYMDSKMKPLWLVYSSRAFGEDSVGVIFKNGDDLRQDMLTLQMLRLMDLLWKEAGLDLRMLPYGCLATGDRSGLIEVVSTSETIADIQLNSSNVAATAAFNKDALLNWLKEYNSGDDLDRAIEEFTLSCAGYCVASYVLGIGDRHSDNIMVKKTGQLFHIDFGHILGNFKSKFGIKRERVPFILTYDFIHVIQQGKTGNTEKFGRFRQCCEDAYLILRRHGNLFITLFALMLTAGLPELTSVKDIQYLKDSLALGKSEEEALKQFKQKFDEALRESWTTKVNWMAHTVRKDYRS
T1 sequence (P26450 whole entry partner): as the sequence (P26450 whole entry partner) above
Method: as §3

T Cell Malignancies = assay: Cellular viability, T cell malignancies; format: cell-based; conditions: N = 7
Excerpt: (§2) Cellular viability and pAkt activity were used to determine effects of Compounds A, C, and D in solid tumor, B-cell malignancies, and T-cell malignancies.

pAkt in solid tumor = assay: pAkt activity, solid tumor; format: cell-based; conditions: N = 14
Excerpt: as §2

UACC-62 = assay: pAkt pathway inhibition, UACC-62; format: cell-based; conditions: Homo sapiens; UACC-62, Melanoma
T47D = assay: Viability (AlamarBlue), T47D; format: cell-based; conditions: Homo sapiens, Breast
Method: as §1

LNCaP = assay: pAkt pathway inhibition, LNCaP; format: cell-based; conditions: Homo sapiens, Prostate
22Rv1 = assay: Viability (AlamarBlue), 22Rv1; format: cell-based; conditions: Homo sapiens; 22Rv1, Prostate
Method: as §1

PTEN null T-ALL = assay: Diseased Lck/PTEN^fl/fl mice with PTEN null T-ALL; format: in vivo; conditions: 30 mg/kg BID; for leukemia cells: about 125 million at Day 0
Method: Mouse whole blood was incubated with appropriate antibodies and processed using the BD Bioscience BD FACS Lysing Solution according to the manufacturer's instructions. Immediately after lysis, cells were permeabilized with 0.025% Tween-20 in lysing solution for 15 minutes, then incubated with Ki67 antibodies. Single cell suspensions of thymocytes were isolated and stained with the appropriate antibodies as described in Swat, W. et al., Essential role of PI3 Kdelta and PI3 Kgamma in thymocyte survival, Blood 107, 2415-2422 (2006).
All mice were kept in specific pathogen-free facility at Columbia University Medical Center. All procedures were performed in accordance with the guidelines of the Institutional Animal Care and Use Committee. Lck-cre, NOD.Cg-Prkdc^scid Il2rg^tmlWjl/Sz and Gt(ROSA)26Sor^tml(Luc)Kael/J mice were obtained from the Jackson Laboratory. Mice deficient for PTEN in the T-cell lineage were generated by crossing Lck-cre with floxed PTEN. P110γ^−/− and p110δ^−/− mice as described in Swat, W. et al., Essential role of PI3 Kdelta and PI3 Kgamma in thymocyte survival, Blood 107, 2415-2422 (2006). The animals were intercrossed with Lck-cre/PTEN^fl/fl animals to generate mice homozygous mutant for either p110γ or p110δ and PTEN or homozygous mutant for p110γ, 110δ, and PTEN.
Lck/PTEN^fl/fl mice were crossed with the mice having a luciferase cDNA, preceded by a LoxP-stop-LoxP cassette was introduced into the ubiquitously expressed ROSA26 locus. […] The results are consistent with the reduction in whole blood cells and CD4 single positive population of tumor cells.
Lck/PTEN^fl/fl mice having T-ALL were administered with Compound B at an oral dose of 10 mg/kg every 8 hours or DMSO vehicle for a period of 7 days. […] Compound B extended the median survival to 45 days compared to 7.5 days for the vehicle group (data not shown).
Diseased Lck/PTEN^fl/fl mice (i.e. Lck/PTEN^fl/fl mice diagnosed with T-ALL) were treated with Compounds B for a period of 7 days. Mice were examined for sequential blood counts, peripheral smears, and flow cytometric analyses. […] Forward scatter (FSC) and Ki67 staining were indicators of cell size and proliferation, respectively; and apoptosis was detected by assessing the […] population after PI staining.
PTEN^fl/fl mice were crossed with the mice having a luciferase cDNA, preceded by a LoxP-stop-LoxP cassette was introduced into the ubiquitously expressed ROSA26 locus. Progeny were then crossed with Lck-cre transgenics to delete PTEN in T-cell progenitors and induce expression of luciferase. Imaging on T-ALL tumor bearing mice was performed at Day 0 and 4 after treatment of Compound B or vehicle.

[1] = In vivo PK (cannulated rat, IV and PO); conditions: for half-life: read-out: T½ (converted)
[2] = In vitro metabolism in human liver microsomes; format: in vitro ADME
U138MG = assay: pAkt pathway inhibition, U138MG; format: cell-based; conditions: Homo sapiens, U138-MG, Glioma
[3] = IV 1 mg/kg, individual rats, 1 mg/kg
[4] = rat, plasma, iv, 1 mg/kg, IV 1 mg/kg, individual rats
[5] = rat, plasma, iv, 1 mg/kg, IV 1 mg/kg, mean of 3 rats
[6] = rat, plasma, po, 3 mg/kg, PO 3 mg/kg, individual rats
[7] = rat, plasma, po, 3 mg/kg, PO 3 mg/kg, mean of 3 rats
[8] = rat, plasma, po, 30 mg/kg, PO 30 mg/kg, individual rats
[9] = rat, plasma, po, 30 mg/kg, PO 30 mg/kg, mean of 3 rats

CC(Nc1ncnc2[nH]cnc12)c1nc2cccc(Cl)c2c(=O)n1-c1ccccc1 (stereo not shown) [Compound A, 2-(1-(9H-purin-6-ylamino)ethyl)-5-chloro-3-phenylquinazolin-4(3H)-one]
GI50 (IGROV-1): 1.3 µM
EC50 (PI3K p110α): 6 µM
EC50 (PI3K p110β): ~0.27 µM and 0.27 µM
EC50 (T Cell Malignancies): 2.4 µM
EC50 (pAkt in solid tumor): 0.188 µM
EC50 (UACC-62): 45 nM
GI50 (T47D): 1.7 µM
EC50 (LNCaP): 34 nM
GI50 (22Rv1): 2.3 µM
CD3 levels (PTEN null T-ALL): reduced
leukemia cells (PTEN null T-ALL; Day 4): about 5.6 million
leukemia cells (PTEN null T-ALL; Day 7): about 4.2 million
white blood cells (PTEN null T-ALL; by Day 4): significant reduction
Vss [1, 3]: 1.32 L/kg and 1.674 L/kg
Vz [1, 3]: 5.849 L/kg and 1.768 L/kg
Bioavailability ([1]; PO 3 mg/kg, individual rats (Rat 1, 2, 3), 3 mg/kg): 81% and 37%
Cmax ([1]; PO 3 mg/kg, individual rats, 3 mg/kg): 457 ng/mL and 345 ng/mL
Bioavailability ([1]; PO 30 mg/kg, individual rats (Rat 4, 5, 6), 30 mg/kg): 138% and 128% and 87%
Cmax ([1]; PO 30 mg/kg, individual rats, 30 mg/kg): 5770 ng/mL and 4320 ng/mL
AUC ([1]; plasma, Rat, PO 3 mg/kg (Table 4)): 2000 ng·h/mL
clearance ([1]; rat, plasma, iv, 1 mg/kg, IV 1 mg/kg (Table 4)): 15.2 mL/min/kg
AUC(0-inf) [1, 4]: 1050 ng·h/mL
AUC(0-t) [1, 4]: 1040 ng·h/mL
Vd ([1]; rat, plasma, iv, 1 mg/kg, IV 1 mg/kg, individual rats, read-out: Vss): 2.64 L/kg
AUC(0-inf) [1, 5]: 1130 ng·h/mL
AUC(0-t) [1, 5]: 1100 ng·h/mL
Vd ([1]; rat, plasma, iv, 1 mg/kg, IV 1 mg/kg, mean of 3 rats, read-out: Vss): 1.88 L/kg
Vd ([1]; rat, plasma, iv, 1 mg/kg, IV 1 mg/kg, mean of 3 rats, read-out: Vz): 2.99 L/kg
Vd ([1]; rat, plasma, iv, 1 mg/kg, Rat, IV 1 mg/kg (Table 4), read-out: Vz): 2.99 L/kg
Tmax ([1]; rat, plasma, po, 3 mg/kg, PO 3 mg/kg (Table 4)): 1.3 h
Tmax [1, 6]: 1 h
Cmax ([1]; rat, plasma, po, 3 mg/kg, PO 3 mg/kg, individual rats, read-out: Cmax): 568 ng/mL
half-life [1, 6]: 2.9 h
AUC(0-inf) [1, 7]: 2010 ng·h/mL
AUC(0-t) [1, 7]: 2000 ng·h/mL
Bioavailability ([1]; rat, plasma, po, 3 mg/kg, PO 3 mg/kg, mean of 3 rats, read-out: Bioavailability): 59%
Cmax ([1]; rat, plasma, po, 3 mg/kg, PO 3 mg/kg, mean of 3 rats, read-out: Cmax): 456 ng/mL
Cmax ([1]; rat, plasma, po, 3 mg/kg, Rat, PO 3 mg/kg (Table 4), read-out: Cmax): 456 ng/mL
AUC(0-inf) [1, 8]: 46800 ng·h/mL
Tmax [1, 8]: 4 h
Cmax ([1]; rat, plasma, po, 30 mg/kg, PO 30 mg/kg, individual rats, read-out: Cmax): 5800 ng/mL
half-life [1, 8]: 2.27 h
AUC(0-inf) [1, 9]: 40000 ng·h/mL
AUC(0-t) [1, 9]: 40000 ng·h/mL
Bioavailability ([1]; rat, plasma, po, 30 mg/kg, PO 30 mg/kg, mean of 3 rats, read-out: Bioavailability): 118%
Cmax ([1]; rat, plasma, po, 30 mg/kg, PO 30 mg/kg, mean of 3 rats, read-out: Cmax): 5300 ng/mL
time at which plasma levels peaked after administration ([1]; rats, single dose, over a period of 24 hours (data not shown)): 2 to 4 h
In vitro metabolism [2]: Stable in human liver microsomes
EC50 (U138MG): 2290 nM
